The values below come from patent publication US12187773B2, “Modified GIP peptide analogues” (Antag Therapeutics ApS, priority 2018, dated 2025).

pIC50: −log10 of the molar value. Where a SMILES comes first, the peptide text is derived from it. The star is where a group is joined. C16 diacid = O=C(O)CCCCCCCCCCCCCCC(=O)*

What all share (assay type): cell-based
Assay [1] addresses T1, human GIP receptor (Homo sapiens, UniProt P48546).
T1 sequence (P48546 22-466): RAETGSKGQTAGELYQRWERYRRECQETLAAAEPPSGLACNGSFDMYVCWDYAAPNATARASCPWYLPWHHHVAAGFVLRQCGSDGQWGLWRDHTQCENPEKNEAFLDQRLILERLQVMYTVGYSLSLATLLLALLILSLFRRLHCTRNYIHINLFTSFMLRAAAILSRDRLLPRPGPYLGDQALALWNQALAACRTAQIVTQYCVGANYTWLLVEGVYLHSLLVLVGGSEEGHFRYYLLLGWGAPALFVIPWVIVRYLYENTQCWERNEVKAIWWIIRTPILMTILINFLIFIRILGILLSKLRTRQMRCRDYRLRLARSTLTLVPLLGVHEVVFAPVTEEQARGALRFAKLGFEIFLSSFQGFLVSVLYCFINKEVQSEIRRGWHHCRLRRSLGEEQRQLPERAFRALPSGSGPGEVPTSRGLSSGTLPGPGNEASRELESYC
The assay is described as follows: cAMP agonism (CisBio cAMP Dynamic 2 HTRF assay). The protocol: To test for agonistic properties at the GIP receptor, compounds were diluted and added to cells as described above and incubated for 30 min at 37° C. The resulting increase in intracellular cAMP was determined using the CisBio cAMP Dynamic 2 HTRF Assay Kit as described above.
On the technique in general: Time-resolved FRET reads energy transfer from a long-lived donor to a nearby acceptor.

The target of assay [2] is T1, human GIP receptor. The assay is described as follows: cAMP antagonism (CisBio cAMP Dynamic 2 HTRF assay). The settings on record: CisBio, HEK-293 cells; for cAMP antagonism, % inhib / IC50: Table 1C; for IC50: nM (IC50). Also noted: pCMV-Script vector. As for the experimental part: The in vitro functional activity of compounds towards human GIP receptor can also be determined in HEK-293 cells transiently expressing the receptor. On the day of the assay, cells were resuspended in HBSS buffer (Gibco, 14025-50) supplemented with 20 mM HEPES (Gibco, 15630-106), 0,1% Pluronic F-68 (Gibco, 24040-032) and 0,1% casein (Sigma, C4765), and plated in 384-well plates at a density of 5000 cells/well. The GIP peptide analogues of the present disclosure were diluted in HBSS buffer supplemented with 20 mM HEPES, 0,1% pluronic, 0,1% casein and 500 uM IBMX. […] The resulting decrease in intracellular cAMP was quantitatively determined using the CisBio cAMP Dynamic 2 HTRF Assay Kit. The assay is based on a competition between native cAMP produced by cells and cAMP labeled with the dye d2 for binding to a cryptate labeled antibody. The specific signal (i.e. energy transfer signal) is inversely proportional to the concentration of cAMP in the sample.
The cAMP-d2 conjugate and the antibody anti-cAMP-Cryptate, both diluted in lysis buffer provided in the kit, were added to the cells according to the manufacturer's protocol. The resulting competitive assay was incubated for 60 minutes at room temperature, and the signal was detected by using a PerkinElmer Envision® instrument with excitation at 320 nm and emission at 665 nm and 620 nm. The HTRF ratio (emission at 665 nm/620 nm*10,000) is inversely proportional to the amount of cAMP present and is converted to nM cAMP per well using a cAMP standard curve. The dose-response curves were fitted using the non-linear regression analysis (four-logistic parameter equation) in GraphPad Prism, whereby pIC50 values were estimated.

In assay [3] the target is T1, human GIP receptor. The assay is described as follows: cAMP accumulation, agonism (DiscoveRx HitHunter cAMP XS assay). Also noted: host or cells: COS-7 (transient, calcium phosphate; pCMV-Script vector). The protocol:
Transient transfected COS-7 cells expressing the human GIP receptor were seeded in white 96-well plates with a density of 3.5*10^4/well. The day after, the cells were washed twice with Hepes buffered saline (HBS) buffer and incubated with HBS and 1 mM 3-isobutyl-1-methylxanthine (IBMX) for 30 min at 37° C. To test for agonistic properties, ligands were added and incubated for 30 min at 37° C. In order to test for antagonistic properties, the cells were preincubated with the antagonists for 10 min prior to the addition of the agonist and subsequent incubated for 20 additional min. The HitHunter™ cAMP XS assay (DiscoveRx) was carried out according to the manufacturer's instructions.
In order to develop a GIP receptor antagonist with improved antagonistic properties, individual amino acid substitutions were conducted on GIP(3-30)NH2 and in particular at positions: 16, 18, 30 or 3, 16, 18, 30. The obtained peptides were lipidated at position 18 directly or via a linker. Both the agonistic and antagonistic profiles of the compounds were tested in cAMP accumulation experiments done in transiently transfected COS-7 cells expressing the human GIP receptor. To investigate if these mutated analogues still retained their antagonistic properties, their ability to inhibit a GIP-mediated cAMP response corresponding to 50-80% of maximum activation was examined.

The mark [4] stands for this setting: HEK293, read-out: cAMP agonism, % Efficacy, Table 1C, HEK-293 cells.
[5] abbreviates: cAMP antagonism, agonist GIP1-42 at EC50.
[6] abbreviates: COS-7, read-out: cAMP agonism, Emax.

Take `CC[C@H](C)[C@H](NC(=O)[C@H](CO)NC(=O)[C@H](Cc1ccc(O)cc1)NC(=O)[C@H](CC(=O)O)NC(=O)[C@H](CO)NC(=O)[C@@H](NC(=O)[C@H](Cc1ccccc1)NC(=O)[C@@H](N)[C@@H](C)O)[C@@H](C)CC)C(=O)N[C@@H](C)C(=O)N[C@@H](CC(C)C)C(=O)N[C@@H](CC(=O)O)C(=O)N[C@@H](CCCNC(=N)N)C(=O)N[C@H](C(=O)N[C@@H](CCCCNC(=O)CC[C@H](NC(=O)CCCCCCCCCCCCCCC(=O)O)C(=O)O)C(=O)N[C@@H](CCC(N)=O)C(=O)N[C@@H](CCC(N)=O)C(=O)N[C@@H](CC(=O)O)C(=O)N[C@@H](Cc1ccccc1)C(=O)N[C@H](C(=O)N[C@@H](CC(N)=O)C(=O)N[C@@H](Cc1c[nH]c2ccccc12)C(=O)N[C@@H](CC(C)C)C(=O)N[C@@H](CC(C)C)C(=O)N[C@@H](C)C(=O)N[C@@H](CCC(N)=O)C(=O)N[C@@H](CCCNC(=N)N)C(N)=O)C(C)C)[C@@H](C)CC` [AT233] (HELM PEPTIDE1{T.F.I.S.D.Y.S.I.A.L.D.R.I.K.Q.Q.D.F.V.N.W.L.L.A.Q.R.[am]}|PEPTIDE2{[O=C(O)CCCCCCCCCCCCCCC(=O)[*:2]].[gGlu]}$PEPTIDE1,PEPTIDE2,14:R3-2:R2$$$V2.0; N-terminus assumed): the values for the Emax at human GIP receptor [1] (setting [4]) and at human GIP receptor [3] (setting [6]) were 0% and 28%, respectively. Besides, on human GIP receptor [2], the “cAMP antagonism, % inhib” value worked out at 70%. In addition, the IC50 at human GIP receptor [2] (setting [5]) was found to be 34.2 nM.
The corresponding values for `CC[C@H](C)[C@H](NC(=O)[C@H](CO)NC(=O)[C@H](Cc1ccc(O)cc1)NC(=O)[C@H](CC(=O)O)NC(=O)[C@H](CO)NC(=O)[C@@H](NC(=O)[C@H](Cc1ccccc1)NC(=O)[C@@H](NC(=O)CNC(=O)[C@@H]1CCCN1)[C@@H](C)O)[C@@H](C)CC)C(=O)N[C@@H](C)C(=O)N[C@@H](CCSC)C(=O)N[C@@H](CC(=O)O)C(=O)N[C@@H](CCCNC(=N)N)C(=O)N[C@H](C(=O)N[C@@H](CCCCNC(=O)CCCCCCCCCCCCCCC(=O)O)C(=O)N[C@@H](CCC(N)=O)C(=O)N[C@@H](CCC(N)=O)C(=O)N[C@@H](CC(=O)O)C(=O)N[C@@H](Cc1ccccc1)C(=O)N[C@H](C(=O)N[C@@H](CC(N)=O)C(=O)N[C@@H](Cc1c[nH]c2ccccc12)C(=O)N[C@@H](CC(C)C)C(=O)N[C@@H](CC(C)C)C(=O)N[C@@H](C)C(=O)N[C@@H](CCC(N)=O)C(=O)N[C@@H](CCCNC(=N)N)C(=O)O)C(C)C)[C@@H](C)CC` [AT261] (H-PGTFISDYSIAMDRIK(C16 diacid)QQDFVNWLLAQR-OH; N-terminus assumed) are 0%, 24%, 62% and 200 nM.
Turning to `CC[C@H](C)[C@H](NC(=O)[C@H](CO)NC(=O)[C@H](Cc1ccc(O)cc1)NC(=O)[C@H](CC(=O)O)NC(=O)[C@H](CO)NC(=O)[C@@H](NC(=O)[C@H](Cc1ccccc1)NC(=O)[C@@H](NC(=O)CNC(=O)CN)[C@@H](C)O)[C@@H](C)CC)C(=O)N[C@@H](C)C(=O)N[C@@H](CCSC)C(=O)N[C@@H](CC(=O)O)C(=O)N[C@@H](CCCNC(=N)N)C(=O)N[C@H](C(=O)N[C@@H](CCCCNC(=O)CC[C@H](NC(=O)CCCCCCCCCCCCCCC(=O)O)C(=O)O)C(=O)N[C@@H](CCC(N)=O)C(=O)N[C@@H](CCC(N)=O)C(=O)N[C@@H](CC(=O)O)C(=O)N[C@@H](Cc1ccccc1)C(=O)N[C@H](C(=O)N[C@@H](CC(N)=O)C(=O)N[C@@H](Cc1c[nH]c2ccccc12)C(=O)N[C@@H](CC(C)C)C(=O)N[C@@H](CC(C)C)C(=O)N[C@@H](C)C(=O)N[C@@H](CCC(N)=O)C(=O)N[C@@H](CCCNC(=N)N)C(=O)O)C(C)C)[C@@H](C)CC` [AT263] (HELM PEPTIDE1{G.G.T.F.I.S.D.Y.S.I.A.M.D.R.I.K.Q.Q.D.F.V.N.W.L.L.A.Q.R}|PEPTIDE2{[O=C(O)CCCCCCCCCCCCCCC(=O)[*:2]].[gGlu]}$PEPTIDE1,PEPTIDE2,16:R3-2:R2$$$V2.0; N-terminus assumed), the Emax was 0% at human GIP receptor [1] (setting [4]) and 8% on human GIP receptor [3] (setting [6]). For the same compound, on human GIP receptor [2], the “cAMP antagonism, % inhib” value is 69%. This compound also came in with an IC50 at human GIP receptor [2] (setting [5]) of 21 nM. Besides, the pIC50 on human GIP receptor [2] (cAMP antagonism, pIC50, Table 1C, agonist GIP1-42 at EC50) is 6.70.
For the compound `CC[C@H](C)[C@H](NC(=O)[C@H](CO)NC(=O)[C@H](Cc1ccc(O)cc1)NC(=O)[C@H](CC(=O)O)NC(=O)[C@H](CO)NC(=O)[C@@H](NC(=O)[C@H](Cc1ccccc1)NC(=O)[C@@H](NC(=O)CNC(=O)[C@@H](N)CO)[C@@H](C)O)[C@@H](C)CC)C(=O)N[C@@H](C)C(=O)N[C@@H](CCSC)C(=O)N[C@@H](CC(=O)O)C(=O)N[C@@H](CCCNC(=N)N)C(=O)N[C@H](C(=O)N[C@@H](CCCCNC(=O)CC[C@H](NC(=O)CCCCCCCCCCCCCCC(=O)O)C(=O)O)C(=O)N[C@@H](CCC(N)=O)C(=O)N[C@@H](CCC(N)=O)C(=O)N[C@@H](CC(=O)O)C(=O)N[C@@H](Cc1ccccc1)C(=O)N[C@H](C(=O)N[C@@H](CC(N)=O)C(=O)N[C@@H](Cc1c[nH]c2ccccc12)C(=O)N[C@@H](CC(C)C)C(=O)N[C@@H](CC(C)C)C(=O)N[C@@H](C)C(=O)N[C@@H](CCC(N)=O)C(=O)N[C@@H](CCCNC(=N)N)C(=O)O)C(C)C)[C@@H](C)CC` [AT265] (HELM PEPTIDE1{S.G.T.F.I.S.D.Y.S.I.A.M.D.R.I.K.Q.Q.D.F.V.N.W.L.L.A.Q.R}|PEPTIDE2{[O=C(O)CCCCCCCCCCCCCCC(=O)[*:2]].[gGlu]}$PEPTIDE1,PEPTIDE2,16:R3-2:R2$$$V2.0; N-terminus assumed), the Emax turned out to be 8% at human GIP receptor [1] (setting [4]) and 10% on human GIP receptor [3] (setting [6]). Besides, on human GIP receptor [2], the “cAMP antagonism, % inhib” value was found to be 73%. The IC50 at human GIP receptor [2] (setting [5]) turned out to be 58.4 nM.
Turning to `CC[C@H](C)[C@H](NC(=O)[C@H](Cc1ccccc1)NC(=O)[C@H](C)NC(=O)CNC(=O)[C@@H](N)CCC(=O)O)C(=O)N[C@@H](CO)C(=O)N[C@@H](CC(=O)O)C(=O)N[C@@H](Cc1ccc(O)cc1)C(=O)N[C@@H](C)C(=O)N[C@@H](C)C(=O)N[C@@H](C)C(=O)N[C@@H](CCSC)C(=O)N[C@@H](CC(=O)O)C(=O)N[C@@H](CCCCN)C(=O)N[C@H](C(=O)N[C@@H](CCCCNC(=O)CCCCCCCCCCCCCCC(=O)O)C(=O)N[C@@H](CCC(N)=O)C(=O)N[C@@H](CCC(N)=O)C(=O)N[C@@H](CC(=O)O)C(=O)N[C@@H](Cc1ccccc1)C(=O)N[C@H](C(=O)N[C@@H](C)C(=O)N[C@@H](Cc1c[nH]c2ccccc12)C(=O)N[C@@H](CC(C)C)C(=O)N[C@@H](CC(C)C)C(=O)N[C@@H](C)C(=O)N[C@@H](CCC(N)=O)C(=O)N[C@@H](CCCCN)C(N)=O)C(C)C)[C@@H](C)CC` [AT483] (H-EGAFISDYAAAMDKIK(C16 diacid)QQDFVAWLLAQK-NH2; N-terminus assumed), the Emax amounted to 0% at human GIP receptor [1] (HEK293, Table 1C, HEK-293 cells, read-out: cAMP agonism, % Efficacy) and 8% at human GIP receptor [3] (Table 1B, DiscoveRx, COS-7 cells, read-out: cAMP agonism, Emax).

As usually defined, the IC50 is the midpoint of a concentration-inhibition curve. A higher IC50 goes with lower potency. As usually defined, the pIC50 is the IC50 on a negative log10 scale, so that one unit is a factor of ten. The low end stands for a large IC50, the high end for a small IC50.
